Legend:
Format in all cases: cell-based, mouse
[1] = system: ABC1 mRNA; experiment: ABC1 mRNA expression by RT-PCR in RAW 264.7 cells; conditions: 10 μM, 24 hours, serum-free DMEM/BSA
Protocol: RT-PCR: Quantitative PCR was carried out using the GeneAmp 5700 Sequence Detection System (Perkin-Elmer Applied Biosystems, Foster City, Calif.). Briefly, 500 ng of DNase-treated mRNA was reverse transcribed using random hexamer primers at 2.5 μM. Approximately 5% of this reaction was amplified by PCR using the SYBR green core kit (PE Applied Biosystems, Foster City, Calif.; Cat. #4304886) and human ABC1 primers LF: 5′-[…] (SEQ ID NO: 11) and LR: 5′-[…] (SEQ ID NO: 12) to yield an 82 bp fragment corresponding to nucleotides 7018-7099 of human ABC1. PCR cycle conditions were as follows: 10 minutes 95° C.; followed by 40 cycles of 95° C., 15 seconds; and 60° C., 60 secounds. The mRNA in each sample was quantitated by detecting the increase in fluorescence caused by SYBR green binding to the double-stranded amplification product generated during each PCR cycle. All samples were run in triplicate and normalized against β-actin mRNA, amplified in parallel reactions with primers actinF: 5′-[…] (SEQ ID NO: 54) and actinB: 5′-[…] […]
Mouse RAW 264.7 cells were grown to subconfluence in DMEM/10% FBS and then treated for 24 hours in serum-free DMEM/BSA with either 9-cis retinoic acid (10 μM), 20-hydroxycholesterol (10 μM), or both ligands together (20 μM total). […] RNA was extracted, treated with DNase, and ABC1 mRNA measured by RT-PCR using PE Biosystems SYBR Green Technology as described in Example 9.

[2] = system: ABC1 promoter; experiment: pAPR1 luciferase reporter assay (ABC1 promoter) in RAW 264.7 cells; conditions: 24 hours
Description: Construction of Reporter Plasmids: Plasmid pGL3-Basic (Promega, Madison, Wis.; Cat. #E1751) was used as a control plasmid containing the promoter less luciferase gene. The reporter construct containing the ABC1 promoter and luciferase gene was made by cloning a genomic fragment from the 5′ flanking region of the ABC1 gene (hAPR1 5′ promoter, corresponding to nucleotides 1080-1643 of SEQ ID NO: 3) into the SacI site of the GL3-Basic plasmid to generate plasmid GL-6a. Next, plasmid GL-6a was digested with SpeI and Acc65I. […]
Luciferase Assay: Following transfection, the cells in each well were lysed in 70 μl of 1× cell lysis reagent (Promega, Madison, Wis., Cat. #E3971), subjected to one freeze-thaw cycle, and the lysate cleared by centrifugation for 5 minutes at 12,000 g. […] The luciferase activity of each lysate was measured as light units using a luminometer. Additionally, the β-galactosidase activity of each lysate was measured using the chemiluminescent assay reagents supplied in the Galacto-light kit according to the manufacturer's instructions (Tropix Inc., Bedford, Mass.: Cat. #BL100G). The normalized luciferase activity for each lysate was determined by dividing the luciferase activity value by the determined β-galactosidase value and reported as relative light units. […]

[3] = system: RAW 264.7 cells; experiment: Apo A-I-mediated cholesterol efflux assay in cholesterol-loaded RAW 264.7 macrophage cells
Protocol: To determine whether ligands for nuclear receptors affect the process of apolipoprotein-mediated cholesterol efflux, various ligands were tested using the apo A-I-mediated cholesterol efflux assay described in Example 12. The nuclear receptor superfamily includes several members, such as the liver receptor LXR, the retinoid receptor RXR, and the peroxisome proliferator-activated receptor PPAR, which have been implicated in lipid metabolism (Russell. D. W., Cell, 97:539-542 (1999); Spiegelman, B. W., Cell, 93:153-155 (1998); Janowski et al., Nature, 383:728-731 (1996)). […] Using the above-described assay, 9 cis-retinoic acid (RXR ligand), oxysterol (LXR ligand), and fenfibrate (PPAR ligand) was tested to determine the effect on cholesterol efflux.
To determine whether eicosanoids affect the process of apolipoprotein-mediated cholesterol efflux, PGE1 and PG12 were tested using the apo A-I-mediated cholesterol efflux assay described in Example 12.

[4] = system: 5′ flanking region of ABC1; experiment: Luciferase reporter assay with ABC1 5′ flanking region constructs in RAW 264.7 cells; conditions: wild-type sequence nucleotides 1080-1643; single ligand or both together
Protocol: (§1) Luciferase Assay: Following transfection, the cells in each well were lysed in 70 μl of 1× cell lysis reagent (Promega, Madison, Wis., Cat. #E3971), subjected to one freeze-thaw cycle, and the lysate cleared by centrifugation for 5 minutes at 12,000 g. After centrifugation, 100 μl of luciferase assay reagent (Promega, Madison, Wis.; Cat. #E1501) was added to 10 μl of lysate. The luciferase activity of each lysate was measured as light units using a luminometer. Additionally, the β-galactosidase activity of each lysate was measured using the chemiluminescent assay reagents supplied in the Galacto-light kit according to the manufacturer's instructions (Tropix Inc., Bedford, Mass.: Cat. #BL100G). The normalized luciferase activity for each lysate was determined by dividing the luciferase activity value by the determined β-galactosidase value and reported as relative light units.
Construction of Reporter Constructs: Reporter construct pAPR1 and control reporter construct pGL3-Basic were obtained as described in Example 15. […]
Transfection of Reporter Constructs: The RAW 264.7 cells were maintained in culture and transfected with either pGL3-Basic (1 μg), pAPR1 (1 μg), or one of the other reporter constructs according to the method described in Example 15. […] The luciferase activity was measured and reported as relative light units as described in Example 15.

[5] = system: mutated sterol response element of ABC1 5′ flanking region; experiment: Luciferase reporter assay with mutated sterol response element construct (nucleotides 1080-1643) in RAW 264.7 cells; conditions: mutated sequence; oxysterol 10 μM
Protocol: as §1
Transfection of Reporter Constructs: The RAW 264.7 cells were maintained in culture and transfected with either pGL3-Basic (1 μg), pAPR1 (1 μg), or one of the other reporter constructs according to the method described in Example 15. […] The luciferase activity was measured and reported as relative light units as described in Example 15. […]

CC1=C(/C=C/C(C)=C\C=C\C(C)=C\C(=O)O)C(C)(C)CCC1 [9-cis retinoic acid]
change in ABC1 mRNA expression [1]: increase in ABC1 mRNA expression
increase in luciferase activity compared with EtOH control ([2]; 9-cis RA 10 μM): 16 fold
increase in apoAI-induced cholesterol efflux ([3]; 30 ng/ml, cholesterol-loaded mouse macrophage cells): ~3 fold
dose dependence of cholesterol efflux from macrophage cells ([3]; 0.3, 3.0 or 30 ng/ml): dose-dependent manner
cholesterol efflux ([3]; apo A-I and 9 cis-retinoic acid 30 ng/ml): 16%
cholesterol efflux counts ([3]; apo A-I plus 0.3 ng/ml 9-cis-RA): 1522 c.p.m.
cholesterol efflux counts ([3]; apo A-I plus 3.0 ng/ml 9-cis-RA): 3568 c.p.m.
cholesterol efflux counts ([3]; apo A-I plus 30 ng/ml 9-cis-RA): 8597 c.p.m.
transcriptional response (luciferase activity) [4]: produced a transcritional response

CC(C)CCC[C@](C)(O)[C@H]1CC[C@H]2[C@@H]3CC=C4C[C@@H](O)CC[C@]4(C)[C@H]3CC[C@@]21C [20(S)-hydroxycholesterol]
transcriptional response (luciferase activity) [5]: did not produce a transcriptional response
change in ABC1 mRNA expression [1]: increase in ABC1 mRNA expression
increase in luciferase reporter activity compared with EtOH control ([2]; 20(S) OH-chol 10 μM): 19 fold
transcriptional response (luciferase activity) [4]: produced a transcritional response

CC(C)CC[C@@H](O)[C@@H](C)[C@H]1CC[C@H]2[C@@H]3CC=C4C[C@@H](O)CC[C@]4(C)[C@H]3CC[C@]12C [22(R)-hydroxycholesterol]
transcriptional response (luciferase activity) [5]: did not produce a transcriptional response
increase in apoAI-induced cholesterol efflux ([3]; 5 μg/ml, cholesterol-loaded mouse macrophage cells): ~3 fold
effect on cholesterol efflux (data not shown) ([3]; similar assay, RAW 264.7 cells cholesterol-loaded for 48 hours): increase cholesterol efflux

CCCCC[C@H](O)/C=C/[C@@H]1[C@H]2C/C(=C/CCCC(=O)O)O[C@H]2C[C@H]1O [PG12, prostacyclin]
increase in apoAI-induced cholesterol efflux ([3]; 25 nm, cholesterol-loaded mouse macrophage cells): ~2 fold
cholesterol efflux ([3]; apo A-I and PG12 25 nm): 10%

CCCCC[C@H](O)/C=C/[C@H]1[C@H](O)CC(=O)[C@@H]1CCCCCCC(=O)O [PGE1, prostaglandin E1]
increase in apoAI-induced cholesterol efflux ([3]; 25 nM, cholesterol-loaded mouse macrophage cells): ~3 fold
cholesterol efflux ([3]; apo A-I and PGE1 25 nM): 15%

CC(C)OC(=O)C(C)(C)Oc1ccc(C(=O)c2ccc(Cl)cc2)cc1 [fenfibrate]
increase in cholesterol efflux ([3]; 3 μg/ml, cholesterol-loaded mouse macrophage cells): ~2 fold
cholesterol efflux ([3]; apo A-I and fenfibrate 3 μg/ml): 10%

Reference: US6821774B1, “Compositions and methods for increasing cholesterol efflux and raising HDL using ATP binding cassette transporter ABC1” (CV Therapeutics, Inc., priority 1999, dated 2004)
